{"source": "patent US20240277717A1", "about": "“APPLICATION OF GANCICLOVIR IN PREPAPRATION OF MEDICINE FOR TREATING ALLERGIC RHINITIS” (Union Hospital, Tongji Medical College, Huazhong University …, priority 2023, published 2024)", "key": {"[1]": {"test_system": "IL-2, IL-4, IL-5, IL-6, IL-13, IL-17A, IL-28A, IL-33, IFN-α, IFN-β, IFN-γ, IFN-λ, Eotaxin in the nasal secretions", "experiment": "Cytokine levels in the nasal secretions measured by Luminex", "assay_type": "in vivo, human", "conditions": "for IL-2 in nasal secretions, after treatment: mean ± SD", "procedure": "Two pieces of 1.0 centimeter (cm)×1.5 cm sterile medical sponge are gently placed into the patient's bilateral nasal cavity for 1-5 minutes (min). After the sponge adsorbs enough the nasal secretions, the sponge is gently removed and put into a 2 milliliters (mL) syringe. The nasal secretions are squeezed out and collected in a 1.5 mL centrifuge tube, centrifuged at 3000 revolutions per minute (rpm) for 5 min, and the supernatant is taken and placed in a refrigerator at −80° C. for testing. Eosinophil cationic protein (ECP) in the nasal secretions is detected by enzyme-linked immunosorbent assay (ELISA). The ECP-ELISA kit is from Zhongmin Taike Biotechnology Co., Ltd. Cytokine levels of interleukin (IL)-2, IL-4, IL-5, IL-6, IL-13, IL-17A, IL-28A, IL-33, interferon (IFN)-α, IFN-β, IFN-γ, IFN-λ, and Eotaxin in the nasal secretions are measured by using Luminex (R&D; LXSAHM-13)."}, "nasal scraping cells": {"test_system": "nasal scraping cells", "experiment": "Transcriptome sequencing (RNA-seq) of nasal scraping cells", "assay_type": "in vivo, human", "procedure": "The scraped mucosal epithelial cells are placed in a TRIzol™ reagent (Invitrogen™) and stored in liquid nitrogen for processing. Library preparation and high-throughput sequencing, data analysis, ribonucleic acid (RNA) sequence and deoxyribonucleic acid (DNA) virus sequence enrichment analysis are performed by Seqhealth Technology Co., Ltd. (China; wuhan). Sample quality analysis is performed by Nanodrop™ OneC spectrophotometer to detect expression at A260 and A280. Qualified samples are finally quantified by QubitR®3.0 fluorometer and Qubit™ RNA broad-range (BR) Assay kits. The original data is first filtered by Trimomatic (Version 0.36). Counting by FeatureCounts, and then calculate reads per kilobase of exon model per million mapped reads (RPKM). Differentially expressed genes between groups are identified using an edgeR package (Version 3.12.1). In analysis, P value<0.05 and fold change (FC) higher than 2 are considered to be significant differences in gene expression between groups."}, "[2]": {"conditions": "GCV effective group n=6, before vs after, P<0.05 and FC>2"}, "[3]": {"conditions": "GCV effective group n=6, nasal scraping cells"}}, "data": [{"smiles": "Nc1nc(O)c2ncn(COC(CO)CO)c2n1", "note": "[GCV, Ganciclovir]", "values": [{"measurement": "all cytokines and inflammatory factors in nasal secretions, change after GCV treatment", "setting": "[1]; GCV effective group and GCV ineffective group", "value": "do not change"}, {"measurement": "IFN-β in nasal secretions, after treatment", "setting": "[1]; GCV effective group, before 26.49 ± 26.34", "value": "38.86 ± 54.29", "unit": "pg/mL"}, {"measurement": "IFN-α in nasal secretions, after treatment", "setting": "[1]; GCV effective group, before 31.09 ± 28.65", "value": "32.77 ± 23.83", "unit": "pg/mL"}, {"measurement": "IL-6 in nasal secretions, after treatment", "setting": "[1]; GCV effective group, before 39.10 ± 34.59", "value": "30.44 ± 27.04", "unit": "pg/mL"}, {"measurement": "IL-17A in nasal secretions, after treatment", "setting": "[1]; GCV effective group, before 55.38 ± 27.4", "value": "58.92 ± 43.93", "unit": "pg/mL"}, {"measurement": "IL-4 in nasal secretions, after treatment", "setting": "[1]; GCV effective group, before 109.67 ± 23.95", "value": "105.32 ± 25.44", "unit": "pg/mL"}, {"measurement": "IFN-γ in nasal secretions, after treatment", "setting": "[1]; GCV effective group, before 181.83 ± 266.06", "value": "120.24 ± 116.93", "unit": "pg/mL"}, {"measurement": "IL-5 in nasal secretions, after treatment", "setting": "[1]; GCV effective group, before 197.49 ± 388.67", "value": "134.24 ± 172.57", "unit": "pg/mL"}, {"measurement": "Eotaxin in nasal secretions, after treatment", "setting": "[1]; GCV effective group, before 206.5 ± 212.85", "value": "153.51 ± 101.87", "unit": "pg/mL"}, {"measurement": "IL-33 in nasal secretions, after treatment", "setting": "[1]; GCV effective group, before 277.39 ± 303.34", "value": "293.62 ± 396.68", "unit": "pg/mL"}, {"measurement": "IFN-λ in nasal secretions, after treatment", "setting": "[1]; GCV effective group, before 313.99 ± 194.7", "value": "331.23 ± 237.77", "unit": "pg/mL"}, {"measurement": "IL-13 in nasal secretions, after treatment", "setting": "[1]; GCV effective group, before 455.81 ± 190.16", "value": "397.80 ± 116.61", "unit": "pg/mL"}, {"measurement": "IL-28A in nasal secretions, after treatment", "setting": "[1]; GCV effective group, before 718.08 ± 263.12", "value": "740.68 ± 214.99", "unit": "pg/mL"}, {"measurement": "IL-2 in nasal secretions, after treatment", "setting": "[1]; GCV effective group, before 148.69 ± 43.59", "value": "132.85 ± 40.51", "unit": "pg/mL"}, {"measurement": "IFN-β in nasal secretions, after treatment", "setting": "[1]; GCV ineffective group, before 19.58 ± 12.05", "value": "17.86 ± 8.57", "unit": "pg/mL"}, {"measurement": "Eotaxin in nasal secretions, after treatment", "setting": "[1]; GCV ineffective group, before 36.79 ± 25.41", "value": "50.35 ± 47.92", "unit": "pg/mL"}, {"measurement": "IL-6 in nasal secretions, after treatment", "setting": "[1]; GCV ineffective group, before 49.62 ± 10.4", "value": "65.53 ± 44.86", "unit": "pg/mL"}, {"measurement": "IL-17A in nasal secretions, after treatment", "setting": "[1]; GCV ineffective group, before 59.88 ± 40.6", "value": "48.13 ± 18.73", "unit": "pg/mL"}, {"measurement": "IFN-γ in nasal secretions, after treatment", "setting": "[1]; GCV ineffective group, before 106.77 ± 51.92", "value": "80.25 ± 44.49", "unit": "pg/mL"}, {"measurement": "IFN-α in nasal secretions, after treatment", "setting": "[1]; GCV ineffective group, before 129.83 ± 170.32", "value": "57.51 ± 49.01", "unit": "pg/mL"}, {"measurement": "IL-4 in nasal secretions, after treatment", "setting": "[1]; GCV ineffective group, before 151.81 ± 71.34", "value": "116.44 ± 53.74", "unit": "pg/mL"}, {"measurement": "IL-5 in nasal secretions, after treatment", "setting": "[1]; GCV ineffective group, before 218.52 ± 189.78", "value": "70.26 ± 57.39", "unit": "pg/mL"}, {"measurement": "IFN-λ in nasal secretions, after treatment", "setting": "[1]; GCV ineffective group, before 371.83 ± 248.73", "value": "363.86 ± 203.72", "unit": "pg/mL"}, {"measurement": "IL-13 in nasal secretions, after treatment", "setting": "[1]; GCV ineffective group, before 382.32 ± 104.87", "value": "282.34 ± 55.29", "unit": "pg/mL"}, {"measurement": "IL-28A in nasal secretions, after treatment", "setting": "[1]; GCV ineffective group, before 392.09 ± 218.69", "value": "447.41 ± 202.35", "unit": "pg/mL"}, {"measurement": "IL-33 in nasal secretions, after treatment", "setting": "[1]; GCV ineffective group, before 583.28 ± 515.20", "value": "436.61 ± 500.63", "unit": "pg/mL"}, {"measurement": "IL-2 in nasal secretions, after treatment", "setting": "[1]; GCV ineffective group, before 139.75 ± 59.26", "value": "125.13 ± 58.88", "unit": "pg/mL"}, {"measurement": "genes down-regulated after GCV treatment", "setting": "nasal scraping cells; [2]", "value": 160, "unit": "genes"}, {"measurement": "genes up-regulated after GCV treatment", "setting": "nasal scraping cells; [2]", "value": 25, "unit": "genes"}, {"measurement": "CXCL9 expression after GCV treatment", "setting": "nasal scraping cells; [3]", "value": "up-regulated"}, {"measurement": "CXCL10 expression after GCV treatment", "setting": "nasal scraping cells; [3]", "value": "up-regulated"}, {"measurement": "MUC5B expression after GCV treatment", "setting": "nasal scraping cells; [3]", "value": "down-regulated"}]}]}
